Laboratory results from patent US10906905B2, “Five-membered heteroaryl ring bridged ring derivative, preparation method therefor and medical use thereof” (Jiangsu Hengrui Medicine Co., Ltd., priority 2016, dated 2021).

Tests used:
[1] = target: TGFβRI kinase ALK5 (Homo sapiens (Human), UniProt P36897); experiment: Inhibition of TGFβRI kinase ALK5 activity (TGFβRI kinase assay kit, ADP-Glo); type: biochemical; details: ATP 50 μM; read-out: IC50 of inhibition effect on TGFβRI kinase ALK5 activity
Procedure: The inhibition effect of TGFβRI kinase activity in vitro was determined by the following method.
The inhibition effect of the compounds of the present invention on TGFβRI kinase ALK5 activity was determined by the following experimental method:
(§1) TGFβRI kinase assay kit (V4093, Promega) was used to assay enzyme activity. 2 μl of enzyme solution (the final concentration of enzyme in the reaction system was 2 ng/μL) formulated with reaction buffer (40 mM Tris pH 7.5, 20 mM MgCl2, 0.1 mg/ml BSA), 1 μl of a 3-fold gradient dilution of the compounds dissolved in 5% DMSO, and 2 μl of a mixed solution of ATP and TGFβRI substrate peptide (the final concentration of ATP was 50 μM, and the final concentration of substrate was 0.2 μg/μL) were added successively to a 384-well plate (4514, Corning). After reaction at 27° C. for 2.5 hours, 5 μl of ADP-Glo solution in the kit was added to each well, then the plate was placed at 27° C. for 40 minutes. 10 μl of kinase assay reagent was then added to each well, then the plate was placed at 27° C. for 30 minutes. The chemiluminescence signal values were measured with a Victor 3 (PerkinElmer) multi-function microplate reader. The IC50 values of the compounds for enzyme inhibition were calculated using Graphpad prism software based on each concentration of the compound and the corresponding signal value thereof.

[2] = test system: Smad signaling pathway of TGFβRI; experiment: Inhibition of Smad signaling pathway of TGFβRI (3TP-lux luciferase reporter in HepG2 cell); type: cell-based; details: Homo sapiens; HepG2 cell, 3TP-lux plasmid, 18 hours; read-out: IC50 on the inhibition of Smad signaling pathway of TGFβRI
Procedure: The inhibition effect of the compounds of the present invention on Smad signaling pathway of TGFβRI was determined by the following in vitro test.
The inhibition effect of the compounds of the present invention on Smad signaling pathway of TGFβRI was determined by the following experimental method:
The seeding density is 2.5×10^4 cells/well. The cells were incubated overnight at 37° C., 5% CO2. Each well was replaced with fresh EMEM medium containing 10% FBS. […] The cells were further incubated for 24 hours at 37° C., 5% CO2. Each well was replaced with 90 μL of EMEM medium containing 0.5% FBS, then the cells were starved for 6 hours. The compounds were formulated as a 20 mM stock solution, which was diluted in gradient to a 400× concentration with 100% DMSO, and further 40-fold diluted with EMEM containing 0.5% FBS. The cell culture plate was taken out, then 10 μl of diluted compound or control (0.25% DMSO) was added to each well respectively. The plate was shaken gently, then incubated for 18 hours in an incubator at 37° C., 5% CO2. Finally, 100 μl of detection reagent ONE-Glo™ Luciferase Assay (E6110, Promega) was added to each well, and the plate was placed in dark at room temperature for 10 minutes. The chemiluminescence signal values were measured with a Victor 3.0 (PerkinElmer). The IC50 values of the compounds were calculated using Graphpad Prism software based on each concentration of the compound and the corresponding signal value thereof.

[3] = test system: NIH3T3 cell; experiment: Inhibition of NIH3T3 cell proliferation (CellTiter-Glo); type: cell-based; details: Mus musculus, 72 hours, 0.5% FBS
Procedure: The inhibition effect of the compounds of the present invention on NIH3T3 cell proliferation was determined by the following in vitro test.
The inhibition effect of the compounds of the present invention on NIH3T3 cell proliferation was determined by the following experimental method:
On a 96-well white plate with transparent bottom (3903, Corning), 100 μL of NIH3T3 cell (GNM6, Cell Bank of Typical Culture Collection Committee of Chinese Academy of Sciences) was seeded in a DMEM medium containing 10% FBS in each well. The seeding density is 2000 cells/well. The cells were incubated overnight at 37° C., 5% CO2. After overnight incubation, each well was replaced with 90 μL of DMEM medium containing 0.5% FBS. 10 μl of a 3-fold gradient dilution of the compounds with DMEM medium containing 0.5% FBS was then added, and the plate was incubated for 72 hours in a cell incubator at 37° C., 5% CO2. Finally, 50 μL of CellTiter-Glo (G7573, Promega) was added to each well. After incubation for 10 minutes at room temperature, the chemiluminescence signal values were measured with a Victor 3 microplate reader (PerkinElmer). The IC50 values of the compounds were calculated using Graphpad Prism software based on each concentration of the compound and the corresponding signal value thereof.

[4] = Pharmacokinetics assay in rats after intragastrical administration; type: in vivo; details: both sexes, Sprague-Dawley, rat, plasma, po, SD rats, 2 mg/kg; for Vd/F: read-out: Apparent distribution volume Vz/F; for AUC: read-out: Area under curve AUC; for CL/F: read-out: Clearance CLz/F; for half-life: read-out: Half-life T1/2 (converted); for Cmax: read-out: Plasma concentration Cmax; for MRT: read-out: Residence time MRT
Procedure: Rats were used as test animals. The drug concentration in plasma at different time points was determined by LC/MS/MS method after intragastrical administration of the compounds of Examples 1-1, 1-2, 2-1, 3-1, the compound with retention time of 6.631 minutes among Examples 9-1 and 9-2, and the compounds of Examples 33 and 39-1 to rats. The pharmacokinetic behavior of the compounds of the present invention was studied and evaluated in rats.
Compounds of Examples 1-1, 1-2, 2-1, 3-1, compound with retention time of 6.631 minutes among Examples 9-1 and 9-2, and compounds of Examples 33 and 39-1.
Twenty-eight healthy adult Sprague-Dawley (SD) rats (half male and half female) were purchased from SINO-BRITISH SIPPR/BK LAB. ANIMAL LTD., CO, with Certificate No.: SCXK (Shanghai) 2008-0016, and equally divided into 7 groups (4 rats per group).
A certain amount of the test compound was weighed, and added with 5% by volume of DMSO, 5% by volume of Tween 80, and 90% by volume of physiological saline were added to prepare a 0.2 mg/mL colorless, clear and transparent solution.
After an overnight fast, SD rats were administered intragastrically the test compounds at an administration dosage of 2.0 mg/kg and an administration volume of 10.0 mL/kg.
The rats were intragastrically administered the compounds of Examples 1-1, 1-2, 2-1, 3-1, the compound with retention time of 6.631 minutes among Examples 9-1 and 9-2, and the compounds of Examples 33 and 39-1.0.2 mL of blood was taken from the orbital sinus before administration and at 0.5, 1.0, 2.0, 4.0, 6.0, 8.0, 11.0 and 24.0 hours after administration. The samples were stored in heparinized tubes, and centrifuged for 10 minutes at 4° C. at 3,500 rpm to separate the blood plasma. The plasma samples were stored at −20° C. The rats were fed 2 hours after administration.
The content of the test compounds in the plasma of rats after intragastrical administration of the test compounds at different concentrations was determined: 25 μL of rat plasma at each time after administration was taken, added with 50 μL (100 ng/mL) of the internal standard solution of camptothecin and 175 μL of acetonitrile, shaken vertically for 5 minutes, and centrifuged for 10 minutes (4000 rpm). 3.0 μL of the supernatant was taken from the plasma samples for LC/MS/MS analysis.

[5] = target: p38α kinase (Homo sapiens (Human), UniProt Q16539); experiment: Inhibition of p38α kinase activity (p38α kinase assay kit, ADP-Glo); type: biochemical; details: ATP 50 μM; read-out: IC50 of inhibition effect on p38α kinase activity
Procedure: The inhibition of p38α kinase activity in vitro was determined by the following method.
The inhibition effect of the compounds of the present invention on p38a kinase activity was determined by the following experimental method:
as §1, with “p38α kinase” for “TGFβRI kinase”, “kit (V9591,” for “kit (V4093,”, “was 0.5” for “was 2”, “and p38” for “and TGFβRI”, “compounds on” for “compounds for”

TGFβRI kinase ALK5, sequence (P36897 34-503): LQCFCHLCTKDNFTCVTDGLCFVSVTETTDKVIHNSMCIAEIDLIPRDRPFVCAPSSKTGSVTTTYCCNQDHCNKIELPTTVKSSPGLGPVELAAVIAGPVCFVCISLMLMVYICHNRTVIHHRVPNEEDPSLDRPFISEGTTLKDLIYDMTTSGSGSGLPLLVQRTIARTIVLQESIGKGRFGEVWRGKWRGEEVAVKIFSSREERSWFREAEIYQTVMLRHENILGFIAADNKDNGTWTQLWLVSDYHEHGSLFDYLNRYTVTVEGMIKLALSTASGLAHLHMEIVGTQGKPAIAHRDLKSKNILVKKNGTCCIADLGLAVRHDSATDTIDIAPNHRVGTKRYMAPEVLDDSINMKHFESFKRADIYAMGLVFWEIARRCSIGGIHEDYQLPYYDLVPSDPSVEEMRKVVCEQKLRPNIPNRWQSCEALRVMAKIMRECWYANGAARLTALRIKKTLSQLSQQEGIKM
p38α kinase, sequence (Q16539 whole entry): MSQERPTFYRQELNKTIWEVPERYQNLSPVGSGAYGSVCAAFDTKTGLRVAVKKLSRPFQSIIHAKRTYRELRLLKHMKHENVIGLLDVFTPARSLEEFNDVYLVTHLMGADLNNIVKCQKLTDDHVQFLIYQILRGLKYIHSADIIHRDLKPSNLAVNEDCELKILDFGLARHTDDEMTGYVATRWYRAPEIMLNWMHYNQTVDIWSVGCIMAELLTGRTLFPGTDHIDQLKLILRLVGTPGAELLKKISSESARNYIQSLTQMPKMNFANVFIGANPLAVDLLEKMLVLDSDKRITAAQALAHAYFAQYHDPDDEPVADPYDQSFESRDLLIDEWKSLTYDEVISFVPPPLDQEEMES

Row | Compound | IC50 [1] | IC50 [2] | IC50 [3] | Vd/F [4] | AUC [4] | CL/F [4] | half-life [4] | Cmax [4] | MRT [4] | IC50 [5]
1 | Cc1cccc(-c2nc3n(c2-c2ccc4nccc(C(N)=O)c4c2)C2CCC3C2)n1 (stereo not drawn) [Example 1, 6-(2-(6-Methylpyridin-2-yl)-5,6,7,8-tetrahydro-5,8-methanoimidazo[1,2-a]pyridin-3-yl) quinoline-4-carboxamide] | 14 nM | 57 nM | 80 nM | – | – | – | – | – | – | –
2 | Cc1cccc(-c2nc3n(c2-c2ccc4nccc(C(N)=O)c4c2)[C@@H]2CC[C@H]3C2)n1 [Example 1-2, 6-((5R,8S)-2-(6-Methylpyridin-2-yl)-5,6,7,8-tetrahydro-5,8-methanoimidazo[1,2-a]pyridin-3-yl)quinoline-4-carboxamide] | 16 nM | 15 nM | – | 14.6 ± 7.63 L/kg | 475 ± 267 ng·h/mL | 89.2 ± 47.4 mL/min/kg | 1.92 ± 0.14 h | 146 ± 81 ng/mL | 3.53 ± 0.93 h | –
3 | Cc1cccc(-c2nc3n(c2-c2ccc4nccnc4c2)C2CCC3C2)n1 (stereo not drawn) [Example 6, 2-(6-Methylpyridin-2-yl)-3-(quinoxalin-6-yl)-5,6,7,8-tetrahydro-5,8-methanoimidazo[1,2-a]pyridine] | 26 nM | 21 nM | 22 nM | – | – | – | – | – | – | –
4 | Cc1cccc(-c2nc3n(c2-c2ccc4ncc(OCCO)nc4c2)C2CCC3C2)n1 (stereo not drawn) [Example 7, 2-((7-(2-(6-Methylpyridin-2-yl)-5,6,7,8-tetrahydro-5,8-methanoimidazo[1,2-a]pyridin-3-yl)quinoxalin-2-yl)oxy)ethanol] | 20 nM | 6 nM | 23 nM | – | – | – | – | – | – | –
5 | NC(=O)c1nnc2ccc(-c3c(-c4ccc(F)cn4)nc4n3C3CCC4C3)cn12 (stereo not drawn) [Example 9, 6-(2-(5-Fluoropyridin-2-yl)-5,6,7,8-tetrahydro-5,8-methanoimidazo[1,2-a]pyridin-3-yl)-[1,2,4]triazolo[4,3-a]pyridine-3-carboxamide] | 43 nM | 82 nM | 91 nM | – | – | – | – | – | – | –
6 | Cc1cccc(-c2nc3n(c2-c2cc4cnccc4s2)C2CCC3C2)n1 (stereo not drawn) [Example 10, 2-(2-(6-Methylpyridin-2-yl)-5,6,7,8-tetrahydro-5,8-methanoimidazo[1,2-a]pyridin-3-yl) thieno[3,2-c]pyridine] | 25 nM | 23 nM | 41 nM | – | – | – | – | – | – | –
7 | Cc1cccc(-c2nc3n(c2-c2ccc4ncnn4c2)C2CCC3C2)n1 (stereo not drawn) [Example 11, 3-([1,2,4]Triazolo[1,5-a]pyridin-6-yl)-2-(6-methylpyridin-2-yl)-5,6,7,8-tetrahydro-5,8-methanoimidazo[1,2-a]pyridine] | 16 nM | 26 nM | 37 nM | – | – | – | – | – | – | –
8 | Cc1cccc(-c2nc3n(c2-c2ccnc(-c4cnn(C)c4)c2)C2CCC3C2)n1 (stereo not drawn) [Example 12, 3-(2-(1-Methyl-1H-pyrazol-4-yl)pyridin-4-yl)-2-(6-methylpyridin-2-yl)-5,6,7,8-tetrahydro-5,8-methanoimidazo[1,2-a]pyridine] | 9 nM | 33 nM | 13 nM | – | – | – | – | – | – | 454 nM
9 | Cc1cccc(-c2nn3c(c2-c2ccnc(-c4ccc(S(C)(=O)=O)cc4)c2)C2CCC3CC2)n1 [Example 33, 2-(6-Methylpyridin-2-yl)-3-(2-(4-(methylsulfonyl)phenyl)pyridin-4-yl)-4,5,6,7-tetrahydro-4,7-ethanopyrazolo[1,5-a]pyridine] | 34 nM | 87 nM | – | 16.4 ± 10.7 L/kg | 228 ± 159 ng·h/mL | 193 ± 95 mL/min/kg | 0.973 ± 0.3 h | 178 ± 113 ng/mL | 1.2 ± 0.35 h | 563 nM
10 | Cc1cccc(-c2nn3c(c2-c2ccc4ncnn4c2)C2CCC3CC2)n1 [Example 38, 3-([1,2,4]Triazolo[1,5-a]pyridin-6-yl)-2-(6-methylpyridin-2-yl)-4,5,6,7-tetrahydro-4,7-ethanopyrazolo[1,5-a]pyridine] | 9 nM | 11 nM | 33 nM | – | – | – | – | – | – | –
11 | NC(=O)c1ccnc2ccc(-c3c(-c4ccccn4)nc4n3[C@H]3CC[C@@H]4C3)cc12 [Example 45-1, 6-((5S,8R)-2-(Pyridin-2-yl)-5,6,7,8-tetrahydro-5,8-methanoimidazo[1,2-a]pyridin-3-yl) quinoline-4-carboxamide] | 29 nM | 32 nM | 51 nM | – | – | – | – | – | – | –
